From BindingDB's records for PubMed 10454469 (Universidad De Sevilla, 1999)
Values joined by “and” are separate entries in the source; they are usually repeats but may differ in a detail not shown here. Equal values may be shown once.

Target: Gamma-aminobutyric acid receptor subunit alpha-1 (Rattus norvegicus, UniProt P62813)
Sequence (P62813 whole entry): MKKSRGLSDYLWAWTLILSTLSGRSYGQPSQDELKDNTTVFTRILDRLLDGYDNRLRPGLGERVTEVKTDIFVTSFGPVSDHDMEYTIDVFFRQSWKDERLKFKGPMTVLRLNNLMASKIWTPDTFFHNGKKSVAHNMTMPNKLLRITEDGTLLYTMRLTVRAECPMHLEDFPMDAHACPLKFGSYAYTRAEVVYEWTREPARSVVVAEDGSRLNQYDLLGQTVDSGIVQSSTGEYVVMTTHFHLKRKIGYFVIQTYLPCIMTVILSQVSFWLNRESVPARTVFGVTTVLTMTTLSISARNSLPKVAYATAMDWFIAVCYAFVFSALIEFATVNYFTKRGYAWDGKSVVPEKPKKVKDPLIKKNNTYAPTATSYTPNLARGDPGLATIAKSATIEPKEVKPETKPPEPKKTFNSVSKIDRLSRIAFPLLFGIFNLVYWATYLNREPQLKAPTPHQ

Cc1nnc2ccc(-c3cccc(C(F)(F)F)c3)nn12
Ki: 0.7 nM and 0.81 nM
